# US20180021288A1, “Neuroprotection in Demyelinating Diseases” (Biogen MA Inc., priority 2010, published 2018)
# Where a name gives a salt, the structure may show the parent alone. Read-outs that look alike come from different tables or passages of the source.
# B1: IFN-beta: murine interferon beta, 10,000 U s.c. (protein, UniProt P01575 22-182, looked up)
# Interferon beta: INYKQLQLQERTNIRKCQELLEQLNGKINLTYRADFKIPMEMTEKMQKSYTAFAIQEMLQNVFLVFRNNFSSTGWNETIVVRLLDELHQQTVFLKTVLEEKQEERLTWEMSSTALHLKSYYWRVQRYLKLMKYNSYAWMVVRAEIFRNFLIIRRLTRNFQN
# Experiments:
# MOG-EAE [1] = assay: DMF/GA co-therapy during short term (acute) course of MOG-EAE (Examples 3 and 8); type: in vivo, mice; settings: for Incidence: pooled data from three experiments; for macrophage/microglia in EAE lesions: day 26 p.i., FIG. 13
# Protocol: The treatment groups were as follows:
# 1) Mice immunized with 200 μg MOG/CFA (complete Freund's adjuvant)+200 ng PTX (pertussis toxin)+vehicle (methocel).
# 2) Mice immunized with 200 μg MOG/CFA and 50 μg GA+vehicle.
# In the acute disease phase (day 26 or day 18 p.i., respectively), parameters of inflammation as well as CNS tissue integrity were analyzed. To this end, 12 week wild-type or C57BL/6 mice were actively immunized with […] of MOG peptide 35-55 and pertussis toxin. On day 18 or 26 p.i., histochemistry was performed to identify T cells (CD3 immunohistochemistry), macrophages/microglia (Mac-3), demyelination (Luxol Fast Blue staining), and axonal loss (Bielschowsky silver impregnation). Histological changes were quantified by a blinded observer counting six visual fields on spinal cord cross sections comprising cervical, thoracic and lumbar spinal cord. Statistical evaluations were performed by Kruskal-Wallis test or t-test. ** p<0.01; *** p<0.001.
# MOG-EAE [2] = settings: 100 or 500 mcg glatiramer acetate co-injected with MOG antigen; FIG. 3
# Description: In this experiment mice were co-injected with glatiramer acetate and the MOG antigen. Specifically, a control group received MOG alone, while two experimental groups received doses of 100 or 500 mcg glatiramer acetate.
# MOG-EAE [3] = settings: in vivo; cited from earlier work
# MOG-EAE [4] = assay: DMF/GA co-therapy during chronic MOG-EAE (Example 3); type: in vivo, mice; settings: for mean clinical EAE score during the chronic phase / onset of EAE symptoms: FIG. 4; for infiltration by T cells / number of infiltrating macrophages: chronic MOG-EAE; for infiltration by T cells: FIG. 7; for number of infiltrating macrophages: FIG. 8; for axonal loss and destruction: chronic phase, FIG. 9
# Protocol: The treatment groups were as follows: 1) Mice immunized with 200 μg MOG/CFA (complete Freund's adjuvant)+200 ng PTX (pertussis toxin)+vehicle (methocel). 2) Mice immunized with 200 μg MOG/CFA and 50 μg GA+vehicle. […] Long term experiment: additional boost on day 28 p.i.
# MOG-EAE [5] = assay: Efficacy of DMF in chronic MOG-EAE (Example 1); type: in vivo, mouse
# Description: See also, Schilling et al., “Fumaric Acid Esters Are Effective in Chronic Experimental Autoimmune Encephalomyelitis and Supress Macrophage Infiltration,” Clinical and Experimental Immunology, Vol. 145, No. 1, pp. 101-107 (2006).
# MOG-EAE [6] = assay: DMF/IFN-beta co-therapy in MOG-EAE (Examples 4 and 8); type: in vivo, mice; settings: DMF 15 mg/kg p.o.; for Incidence: FIG. 11, IFN-beta 10,000 U s.c. e.o.d; for mean clinical EAE score / clinical disease course: short-term course, IFN-beta 10,000 U s.c., FIG. 11, FIG. 15
# [7] = not given; remark: listed apart in the source
# [8] = FIG. 4, single experiment, GA 50 μg, DMF 15 mg/kgBW
# [9] = FIG. 5, pooled data from two experiments (n=12 per group)
# [10] = GA study, healthy volunteers, DMF 240 mg tid
# [11] = IFN-beta-1a study, healthy volunteers, DMF 240 mg tid
molecule,measurement,setting,value
"L-glutamic acid polymer with L-alanine, L-lysine and L-tyrosine, acetate (salt) [GA]",Incidence,MOG-EAE [1]; short term course,13/18
same,mean clinical score,MOG-EAE [2],reduced the mean clinical score of the 100 or 500 mcg groups in a dose-dependent manner
same,prevention of clinical and histological signs of EAE in combination with atorvastatin,MOG-EAE [3],synergize with atorvastatin
same,Incidence,MOG-EAE [4]; [8],6/6
same,mean clinical EAE score during the chronic phase,"MOG-EAE [4]; GA 50 μg, DMF 15 mg/kgBW",intermediate effect
same,onset of EAE symptoms,"MOG-EAE [4]; GA 50 μg, DMF 15 mg/kgBW",delayed
same,Incidence,MOG-EAE [4]; [9],11/12
same,infiltration by T cells,MOG-EAE [4],neither GA nor DMF reduces
same,number of infiltrating macrophages,MOG-EAE [4],neither GA nor DMF alone does so
same,"infiltrates (inflammatory index, HE staining of spinal cords)","MOG-EAE [4]; chronic disease phase, FIG. 6",reduces infiltrates
same,axonal loss and destruction,MOG-EAE [4],reduce axonal loss and destruction
"COC(=O)/C=C/C(=O)OC [DMF, Dimethyl fumarate]",macrophage/microglia in EAE lesions,MOG-EAE [1],reduction of macrophage/microglia
same,macrophage/microglia in EAE lesions,MOG-EAE [1]; listed as DMF alone,efficiently reduces
same,Incidence,MOG-EAE [1]; short term course,11/18
same,mean clinical EAE score / clinical disease course,"MOG-EAE [1]; short term course, FIG. 10A and 10B",greater than that of GA
same,mean clinical score,"MOG-EAE [5]; DMF 15 mg/kg twice daily via oral gavage, FIG. 1",reduced
same,T-cell infiltration,"MOG-EAE [5]; mouse, in vivo",without suppressing
same,efficacy in chronic MOG-EAE,"MOG-EAE [5]; mouse, in vivo",effective
same,macrophage infiltration,"MOG-EAE [5]; mouse, in vivo",suppress
same,demyelination,"MOG-EAE [5]; spinal cord tissue, FIG. 2B",reduced
same,Incidence,MOG-EAE [6],6/6
same,mean clinical EAE score / clinical disease course,MOG-EAE [6],exacerbated the EAE compared to the methocel controls
same,most common adverse events,GA study,flushing
same,new safety signals,GA study,no new safety signals
same,Any AE,[10],84%
same,Diarrhea,[10],8%
same,Flushing,[10],76%
same,Headache,[10],12%
same,Nausea,[10],8%
same,Paresthesia,[10],32%
same,Pruritus,[10],28%
same,subjects discontinued due to adverse event,"GA study, mild erythematous facial nodule (DMF alone), mild nausea (DMF+GA)",one
same,Influenza-like illness,"human, in vivo",0%
same,most common adverse events,[7]; IFN-beta-1a study,flushing
same,new safety signals,[7]; IFN-beta-1a study,no new safety signals
same,Any AE,[7]; [11],71%
same,Diarrhea,[7]; [11],0%
same,Flushing,[7]; [11],50%
same,Headache,[7]; [11],13%
same,Nausea,[7]; [11],4%
same,Paresthesia,[7]; [11],21%
same,Pruritus,[7]; [11],4%
same,Influenza-like illness,"[7]; human, in vivo",0%
same,Incidence,MOG-EAE [4]; [8],6/6
same,mean clinical EAE score during the chronic phase,"MOG-EAE [4]; GA 50 μg, DMF 15 mg/kgBW",little if any effect
same,onset of EAE symptoms,"MOG-EAE [4]; GA 50 μg, DMF 15 mg/kgBW",delayed
same,Incidence,MOG-EAE [4]; [9],9/12
same,infiltration by T cells,MOG-EAE [4],neither GA nor DMF reduces
same,number of infiltrating macrophages,MOG-EAE [4],neither GA nor DMF alone does so
same,axonal loss and destruction,MOG-EAE [4],reduce axonal loss and destruction
B1,Incidence,MOG-EAE [6],5/6
same,mean clinical EAE score / clinical disease course,MOG-EAE [6],exacerbated the EAE compared to the methocel controls
